Reference: US5057503A, “Derivativized polysaccharides with biologic activity, method of their isolation, and uses therefor” (The Brigham and Women's Hospital, priority 1989, dated 1991)

System: human monocyte β-glucan receptors
Experiment: Inhibition of adherent monocyte phagocytosis of zymosan particles after pretreatment with isolated carbohydrates
Format: cell-based
Conditions: for phagocytosis-inhibiting activity after derivatization with 2-aminopyridine (in words): 100 ng/ml tested; for activity after derivatization with 2-aminopyridine (in words): as much as 800 ng/ml in the functional monocyte assays; for phagocytosis-inhibiting activity / interaction with human monocyte β-glucan receptors (in words): concentration not given

| SMILES | phagocytosis-inhibiting activity after derivatization with 2-aminopyridine (in words) | activity after derivatization with 2-aminopyridine (in words) | phagocytosis-inhibiting activity / interaction with human monocyte β-glucan receptors (in words) | effect on monocyte ingestion of zymosan (in words) (500 ng/ml to 100 μg/ml, without derivatization) | proportion of monocytes ingesting zymosan after pretreatment (100 μg/ml, without derivatization, without pretreatment 67% (synthetic β-heptaglucoside) and 50% (maltoheptose)) [%] |
| --- | --- | --- | --- | --- | --- |
| OC[C@H]1O[C@H](O[C@H]2[C@H](O)[C@@H](O)[C@@H](O[C@H]3[C@H](O)[C@@H](O)[C@@H](O[C@H]4[C@H](O)[C@@H](O)[C@@H](O[C@H]5[C@H](O)[C@@H](O)[C@@H](O[C@H]6[C@H](O)[C@@H](O)[C@@H](O[C@H]7[C@H](O)[C@@H](O)C(Nc8ccccn8)O[C@@H]7CO)O[C@@H]6CO)O[C@@H]5CO)O[C@@H]4CO)O[C@@H]3CO)O[C@@H]2CO)[C@H](O)[C@@H](O)[C@@H]1O (some centres unmarked) [Derivatized maltoheptose] | not acquired | remained inactive | remained inactive | – | – |
| OC[C@H]1O[C@@H](OC[C@H]2O[C@@H](OC[C@H]3O[C@@H](OC[C@H]4O[C@@H](OC[C@H]5OC(Nc6ccccn6)[C@H](O)[C@@H](O)[C@@H]5O)[C@H](O)[C@@H](O[C@@H]5O[C@H](CO)[C@@H](O)[C@H](O)[C@H]5O)[C@@H]4O)[C@H](O)[C@@H](O)[C@@H]3O)[C@H](O)[C@@H](O[C@@H]3O[C@H](CO)[C@@H](O)[C@H](O)[C@H]3O)[C@@H]2O)[C@H](O)[C@@H](O)[C@@H]1O (stereo partly drawn) [Derivatized synthetic β-heptaglucoside] | not acquired | remained inactive | remained inactive | – | – |
| OC[C@H]1O[C@H](O[C@H]2[C@H](O)[C@@H](O)[C@@H](O[C@H]3[C@H](O)[C@@H](O)[C@@H](O[C@H]4[C@H](O)[C@@H](O)[C@@H](O[C@H]5[C@H](O)[C@@H](O)[C@@H](O[C@H]6[C@H](O)[C@@H](O)[C@@H](O[C@H]7[C@H](O)[C@@H](O)C(O)O[C@@H]7CO)O[C@@H]6CO)O[C@@H]5CO)O[C@@H]4CO)O[C@@H]3CO)O[C@@H]2CO)[C@H](O)[C@@H](O)[C@@H]1O (some centres unmarked) [Maltoheptose] | – | – | – | no effect | 52 |
